Reference: patent US20240076293A1, “Compositions and Methods for Inhibiting Fibrosis, Inflammation and Cancer” (Georgia Tech Research Corporation, priority 2020, published 2024)
Counter-ions that a name gives are not always drawn. Like-named read-outs stand apart in the source and are kept apart here.

Assays:
Assay type in all cases: cell-based
MDA-MB-231 = experiment: Anti-proliferation IC50, MDA-MB-231; conditions: Homo sapiens
A549 = experiment: Anti-proliferation IC50, A549; conditions: Homo sapiens
VERO = experiment: Anti-proliferation IC50, VERO; conditions: Chlorocebus sabaeus
MCF-7 = experiment: Anti-proliferation IC50, MCF-7; conditions: Homo sapiens, MCF7
MRC-5 = experiment: Anti-proliferation IC50, MRC-5; conditions: Homo sapiens, MRC5; Table 2, compounds of formula II
Hep-G2 = experiment: Anti-proliferation IC50, Hep-G2; conditions: Homo sapiens, HepG2
[1] = Anti-proliferation IC50, MRC-5; conditions: human, MRC-5 cells; Table 1, compounds of formula I; NI = no inhibition up to 500 μM
[2] = Table 2, compounds of formula II, read-out: Anti-proliferation IC50 MDA-MB-231
[3] = Table 2, compounds of formula II, read-out: Anti-proliferation IC50 A549
[4] = Table 2, compounds of formula II, read-out: Anti-proliferation IC50 VERO
[5] = Table 2, compounds of formula II, read-out: Anti-proliferation IC50 MCF-7
[6] = Table 2, compounds of formula II, read-out: Anti-proliferation IC50 Hep-G2
[7] = Table 1, compounds of formula I, NI = no inhibition up to 500 μM, read-out: MDA-MB-231 (IC50)
[8] = Table 1, compounds of formula I, NI = no inhibition up to 500 μM, read-out: A549 (IC50)
[9] = Table 1, compounds of formula I, NI = no inhibition up to 500 μM, read-out: VERO (IC50)
[10] = Table 1, compounds of formula I, NI = no inhibition up to 500 μM, read-out: MCF-7 (IC50)
[11] = Table 1, compounds of formula I, NI = no inhibition up to 500 μM, read-out: Hep-G2 (IC50)

`CC[C@H]1OC(=O)[C@H](C)[C@@H](O[C@H]2C[C@@](C)(OC)[C@@H](O)[C@H](C)O2)[C@H](C)[C@@H](O[C@@H]2O[C@H](C)C[C@H](N(C)C(=O)CCCC[C@H]3CCSS3)[C@H]2O)[C@](C)(O)C[C@@H](C)CN(C)[C@H](C)[C@@H](O)[C@]1(C)O` showed an IC50 (MDA-MB-231; [2]) of 11.9 ± 1.7 µM, an IC50 (A549; [3]) of 18.8 ± 4.1 µM and an IC50 (VERO; [4]) of 24.4 ± 2.4 µM. For the same compound, the IC50 (MCF-7; [5]) was 11.2 µM, the IC50 (MRC-5) was 20.2 ± 3.7 µM and the IC50 (Hep-G2; [6]) was 13.6 ± 0.1 µM.
`CC[C@H]1OC(=O)[C@@H](C)[C@@H](O)[C@@H](C)[C@@H](O[C@H]2O[C@@H](C)C[C@@H](N(C)C)[C@@H]2OC(=O)CCCC[C@H]2CCSS2)[C@](C)(OC)C[C@@H](C)C(=O)[C@H](C)[C@H](O)[C@]1(C)O` showed an IC50 (MDA-MB-231; [7]) of 414.4 ± 1.7 µM, an IC50 (A549; [8]) of over 500 µM and an IC50 (VERO; [9]) of over 500 µM. It also gave an IC50 (MCF-7; [10]) of 477.3 ± 3.4 µM, an IC50 [1] of 262.6 ± 0.4 µM and an IC50 (Hep-G2; [11]) of 222 ± 5.3 µM.
Compound `CC[C@@H]1OC(=O)[C@@H](C)[C@H](O[C@H]2C[C@@](C)(OC)[C@@H](O)[C@H](C)O2)[C@@H](C)[C@H](O[C@@H]2O[C@H](C)C[C@H](N(C)C)[C@H]2OC(=O)CCCC[C@H]2CCSS2)C(C)(O)C[C@H](C)CN(C)[C@@H](C)[C@H](O)[C@@]1(C)O` (stereo partly drawn) has an IC50 (MDA-MB-231; [2]) of 45 ± 1.3 µM, an IC50 (A549; [3]) of 23 ± 0.5 µM and an IC50 (VERO; [4]) of 54.5 ± 0.8 µM. The IC50 (MCF-7; [5]) was 38.2 ± 0.8 µM, the IC50 (MRC-5) was 13.4 ± 0.4 µM and the IC50 (Hep-G2; [6]) was 29.5 ± 4.4 µM.
Work on `CCCCOC(=O)/C=C/C(=O)N(C)[C@@H]1C[C@H](C)O[C@H](O[C@H]2[C@H](C)[C@@H](O[C@H]3C[C@@](C)(OC)[C@@H](O)[C@H](C)O3)[C@H](C)C(=O)O[C@@H](CC)[C@](C)(O)[C@@H](O)[C@H](C)N(C)C[C@@H](C)CC2(C)O)[C@H]1O` (stereo partly drawn) yielded an IC50 (MDA-MB-231; [2]) of 34.8 ± 2.8 µM, an IC50 (A549; [3]) of 111 ± 4.6 µM and an IC50 (VERO; [4]) of 97.2 ± 15.5 µM. The IC50 (MCF-7; [5]) was 39.3 ± 7.1 µM, the IC50 (MRC-5) was 78.9 ± 2.6 µM and the IC50 (Hep-G2; [6]) was 64.9 ± 2.4 µM.
`COC(=O)/C=C/C(=O)OC` [Dimethyl Fumarate, reference compound] showed an IC50 (MDA-MB-231; [7]) of over 500 µM, an IC50 (A549; [8]) of over 500 µM and an IC50 (VERO; [9]) of 844 µM. For the same compound, the IC50 (MCF-7; [10]) was over 500 µM, the IC50 [1] was 259 µM and the IC50 (Hep-G2; [11]) was over 500 µM.
With `CC[C@@H]1OC(=O)[C@@H](C)[C@H](O[C@H]2C[C@@](C)(OC)[C@@H](O)[C@H](C)O2)[C@@H](C)[C@H](O[C@H]2O[C@@H](C)C[C@@H](N(C)Cc3ccc(-c4cn(CCNC(=O)CCCC[C@H]5CCSS5)nn4)cc3)[C@@H]2O)C(C)(O)C[C@H](C)CN(C)[C@@H](C)[C@H](O)[C@@]1(C)O` (stereo partly drawn) the IC50 (MDA-MB-231; [2]) was 11.8 ± 0.1 µM, the IC50 (A549; [3]) was 10.3 ± 0.9 µM and the IC50 (VERO; [4]) was 16.9 ± 0.4 µM. The IC50 (MCF-7; [5]) was 11.7 ± 0.4 µM, the IC50 (MRC-5) was 6.1 µM and the IC50 (Hep-G2; [6]) was 8.5 ± 1.1 µM.
With `CCCCOC(=O)/C=C/C(=O)O[C@@H]1[C@@H](O[C@H]2[C@H](C)[C@@H](O[C@H]3C[C@@](C)(OC)[C@@H](O)[C@H](C)O3)[C@H](C)C(=O)O[C@@H](CC)[C@](C)(O)[C@@H](O)[C@H](C)N(C)C[C@@H](C)CC2(C)O)O[C@@H](C)C[C@H]1N(C)C` (stereo partly drawn) the IC50 (MDA-MB-231; [2]) was 29.6 ± 3 µM, the IC50 (A549; [3]) was 141 ± 4.3 µM and the IC50 (VERO; [4]) was 126 ± 2.4 µM. For the same compound, the IC50 (MCF-7; [5]) was 50 ± 1.5 µM, the IC50 (MRC-5) was 43.6 ± 8.5 µM and the IC50 (Hep-G2; [6]) was 63.6 ± 7.7 µM.
With `CC[C@H]1OC(=O)[C@@H](C)[C@@H](O[C@H]2C[C@@](C)(OC)[C@@H](O)[C@H](C)O2)[C@@H](C)[C@@H](O[C@H]2O[C@@H](C)C[C@@H](N(C)Cc3ccc(-c4cn(CCNC(=O)CCCC[C@H]5CCSS5)nn4)cc3)[C@@H]2O)[C@](C)(OC)C[C@@H](C)C(=O)[C@H](C)[C@H](O)[C@]1(C)O` the IC50 (MDA-MB-231; [7]) was 56.9 ± 1.3 µM, the IC50 (A549; [8]) was 58.6 ± 0.6 µM and the IC50 (VERO; [9]) was 65 ± 12.2 µM. For the same compound, the IC50 (MCF-7; [10]) was 42.3 ± 4.4 µM, the IC50 [1] was 56.1 ± 1.2 µM and the IC50 (Hep-G2; [11]) was 57.3 ± 1.2 µM.
In the case of `CC[C@H]1OC(=O)[C@@H](C)[C@@H](O[C@@H]2C[C@](C)(OC)[C@H](O)[C@@H](C)O2)[C@@H](C)[C@@H](O[C@H]2O[C@@H](C)C[C@@H](N(C)C)[C@@H]2OC(=O)CCCC[C@H]2CCSS2)[C@](C)(OC)C[C@@H](C)C(=O)[C@H](C)[C@H](O)[C@]1(C)O`, the IC50 (MDA-MB-231; [7]) is reported as 65 ± 0.9 µM, the IC50 (A549; [8]) is reported as over 500 µM and the IC50 (VERO; [9]) is reported as over 500 µM. The IC50 (MCF-7; [10]) was over 500 µM, the IC50 [1] was 44.8 ± 7.1 µM and the IC50 (Hep-G2; [11]) was over 500 µM.
For `CCCCOC(=O)/C=C/C(=O)N(C)[C@@H]1C[C@H](C)O[C@H](O[C@@H]2[C@H](C)[C@H](O[C@H]3C[C@@](C)(OC)[C@@H](O)[C@H](C)O3)[C@H](C)C(=O)O[C@H](CC)[C@@](C)(O)[C@@H](O)[C@@H](C)C(=O)[C@H](C)C[C@@]2(C)OC)[C@H]1O`, the IC50 (MDA-MB-231; [7]) was 28.4 ± 3.9 µM, the IC50 (A549; [8]) was over 500 µM and the IC50 (VERO; [9]) was 68.3 ± 16.8 µM. For the same compound, the IC50 (MCF-7; [10]) was 72.3 ± 5.2 µM, the IC50 [1] was 44.9 ± 0.6 µM and the IC50 (Hep-G2; [11]) was 209 ± 11.2 µM.
`CC[C@@H]1OC(=O)[C@@H](C)[C@H](O[C@H]2C[C@@](C)(OC)[C@@H](O)[C@H](C)O2)[C@@H](C)[C@H](O[C@H]2O[C@@H](C)C[C@@H](N(C)C)[C@@H]2OC(=O)/C=C/C(=O)OC)C(C)(O)C[C@H](C)CN(C)[C@@H](C)[C@H](O)[C@@]1(C)O` (stereo partly drawn) gave an IC50 (MDA-MB-231; [2]) of 118 µM, an IC50 (A549; [3]) of 284 µM and an IC50 (VERO; [4]) of 238 ± 29.1 µM. For the same compound, the IC50 (MCF-7; [5]) was 278 µM, the IC50 (MRC-5) was 68.3 µM and the IC50 (Hep-G2; [6]) was 118 µM.
Compound `CC[C@H]1OC(=O)[C@@H](C)[C@@H](O[C@H]2C[C@@](C)(OC)[C@@H](O)[C@H](C)O2)[C@@H](C)[C@@H](O[C@H]2O[C@@H](C)C[C@@H](N(C)C)[C@@H]2OC(=O)/C=C/C(=O)OC)[C@](C)(OC)C[C@@H](C)C(=O)[C@H](C)[C@H](O)[C@]1(C)O` has an IC50 (MDA-MB-231; [7]) of 140 µM, an IC50 (A549; [8]) of 278 µM and an IC50 (VERO; [9]) of 219 ± 45.8 µM. It also gave an IC50 (MCF-7; [10]) of 128 ± 16.5 µM, an IC50 [1] of 88.4 µM and an IC50 (Hep-G2; [11]) of 133 µM.
`CC[C@@H]1OC(=O)[C@@H](C)[C@H](OC2C[C@@](C)(OC)[C@@H](O)[C@H](C)O2)[C@@H](C)[C@H](O[C@H]2O[C@@H](C)C[C@@H](N(C)Cc3ccc(-c4cn(CCCNC(=O)CCCC[C@H]5CCSS5)nn4)cc3)[C@@H]2O)C(C)(O)C[C@H](C)CN(C)[C@@H](C)[C@H](O)[C@@]1(C)O` (stereo partly drawn) showed an IC50 (MDA-MB-231; [2]) of 21.3 ± 1.5 µM, an IC50 (A549; [3]) of 26.9 µM and an IC50 (VERO; [4]) of 40.3 ± 4.9 µM. The IC50 (MCF-7; [5]) was 26.8 ± 7.1 µM, the IC50 (MRC-5) was 24.5 ± 2.6 µM and the IC50 (Hep-G2; [6]) was 14.4 ± 0.6 µM.
